Test results reported in patent publication US5364877A, “Indole derivatives as 5-lipoxygenase inhibitors” (ICI Pharma, priority 1990, dated 1994).

Target: T1, 5-LO (Rattus norvegicus, UniProt P12527)
T1 construct: liberation of LTB4 induced by zymosan within an air pouch generated within the subcutaneous tissue of the back of male rats; endogenous in cells; host or cells: cells in the air pouch of living male rats (in vivo)
T1 sequence (P12527 1-673): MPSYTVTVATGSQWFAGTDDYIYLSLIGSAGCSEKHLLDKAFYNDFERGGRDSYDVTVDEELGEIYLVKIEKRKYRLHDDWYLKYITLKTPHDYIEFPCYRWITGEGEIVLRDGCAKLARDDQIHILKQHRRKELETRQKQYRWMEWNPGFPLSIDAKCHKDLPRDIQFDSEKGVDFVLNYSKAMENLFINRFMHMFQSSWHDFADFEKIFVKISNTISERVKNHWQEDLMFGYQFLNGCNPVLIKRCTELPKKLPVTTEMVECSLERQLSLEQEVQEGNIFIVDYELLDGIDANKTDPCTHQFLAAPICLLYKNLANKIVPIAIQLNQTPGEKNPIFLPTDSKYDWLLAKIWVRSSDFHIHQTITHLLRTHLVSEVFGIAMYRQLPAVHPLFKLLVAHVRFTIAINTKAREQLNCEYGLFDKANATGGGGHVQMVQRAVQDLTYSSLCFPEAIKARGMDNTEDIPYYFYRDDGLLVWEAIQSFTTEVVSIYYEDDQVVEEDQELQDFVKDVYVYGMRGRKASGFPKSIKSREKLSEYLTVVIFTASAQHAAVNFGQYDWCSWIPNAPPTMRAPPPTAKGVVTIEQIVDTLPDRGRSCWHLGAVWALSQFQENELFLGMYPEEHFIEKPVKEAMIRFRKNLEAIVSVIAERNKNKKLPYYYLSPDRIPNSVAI
Experiment: Test g) zymosan-induced liberation of LTB4 within an air pouch in male rats
Type: in vivo
Settings: rat, 3 h; test g), oral
Procedure: g) An in vivo system involving measuring the effects of a test compound administered orally against the liberation of LTB4 induced by zymosan within an air pouch generated within the subcutaneous tissue of the back of male rats. The rats are anaesthetised and air pouches are formed by the injection of sterile air (20 ml). A further injection of air (10 ml) is similarly given after 3 days. At 6 days after the initial air injection the test compound is administered (usually orally as the suspension produced when a solution of the test compound in dimethylsulphoxide is added to hydroxypropylmethylcellulose), followed by the intrapouch injection of zymosan (1 ml of a 1% suspension in physiological saline). After 3 hours the rats are killed, the air pouches are lavaged with physiological saline, and the specific radioimmunoassay described above is used to assay LTB4 in the washings. This test provides an indication of inhibitory effects against 5-LO in an inflammatory milieu.

Compound: COC1(c2cccc(Sc3ccc4c(c3)n(C)c(=O)n4C)c2)CCOCC1 [Example 1, 4-[3-(1,3-dimethyl-2-oxo-2,3-dihydrobenzimidazol-5-ylthio)phenyl]-4-methoxytetrahydropyran]
- ED50: < 2 mg/kg
